Assay [1] relates to acetic acid writhing pain model in mice. The assay is described as follows: Acetic acid-induced writhing test. The class given is in vivo, ICR mice. The following applies: 15 min before acetic acid, writhing counted 30 min. An excerpt:
Acute pain was a common type of pain with considerable value for drug development. Here, 2 acute inflammatory pain models were used to verify the acute analgesic effect of WN2-R. One such model, the acetic acid writhing pain model in mice, is a well-established acute visceral pain model. It simulates clinically relevant intestinal discomfort by stimulating the abdominal mucosa and intestine with acetic acid and has been extensively used to screen analgesic or anti-inflammatory drugs. Based on this model, we evaluated the acute analgesic effect of WN2-R using 2 drug delivery methods, i.g. and […] (n = 6). […] Furthermore, the analgesic effect of WN2-R at the same dose was similar to that of the positive control drug PF-05089771, with no significant difference between these two. […] Three male and 3 female ICR mice were used in the acetic acid-induced writhing test. Mice were preadministered with either WN2-R (5 mg/kg i.g., 1 mg/kg i.m.), PF05089771 (5 mg/kg i.g., 1 mg/kg i.m.), or saline 15 min before i.p. injection of 0.2 ml of acetic acid (0.8%, V/V). Each mouse was then placed in an individual open polyvinyl cage (30 cm × 40 cm × 30 cm). The number of writhing responses, characterized by a wave of abdominal muscle contraction followed by hind limb extension, was recorded for 30 min after acetic acid injection. These responses served as an indication of nociceptive intensity. The percentage of inhibition was calculated using the following equation: Inhibition% = (Writhing Numbervehicle – Writhing Numberdrug)/Writhing Numbervehicle × 100% [15, 47].

The target in another assay is T1, Nav1.7 A1596G (Homo sapiens, UniProt Q15858, A1596G).
T1 construct: expressed in transfected cells; host or cells: HEK293T
T1 sequence (Q15858 whole entry A1596G): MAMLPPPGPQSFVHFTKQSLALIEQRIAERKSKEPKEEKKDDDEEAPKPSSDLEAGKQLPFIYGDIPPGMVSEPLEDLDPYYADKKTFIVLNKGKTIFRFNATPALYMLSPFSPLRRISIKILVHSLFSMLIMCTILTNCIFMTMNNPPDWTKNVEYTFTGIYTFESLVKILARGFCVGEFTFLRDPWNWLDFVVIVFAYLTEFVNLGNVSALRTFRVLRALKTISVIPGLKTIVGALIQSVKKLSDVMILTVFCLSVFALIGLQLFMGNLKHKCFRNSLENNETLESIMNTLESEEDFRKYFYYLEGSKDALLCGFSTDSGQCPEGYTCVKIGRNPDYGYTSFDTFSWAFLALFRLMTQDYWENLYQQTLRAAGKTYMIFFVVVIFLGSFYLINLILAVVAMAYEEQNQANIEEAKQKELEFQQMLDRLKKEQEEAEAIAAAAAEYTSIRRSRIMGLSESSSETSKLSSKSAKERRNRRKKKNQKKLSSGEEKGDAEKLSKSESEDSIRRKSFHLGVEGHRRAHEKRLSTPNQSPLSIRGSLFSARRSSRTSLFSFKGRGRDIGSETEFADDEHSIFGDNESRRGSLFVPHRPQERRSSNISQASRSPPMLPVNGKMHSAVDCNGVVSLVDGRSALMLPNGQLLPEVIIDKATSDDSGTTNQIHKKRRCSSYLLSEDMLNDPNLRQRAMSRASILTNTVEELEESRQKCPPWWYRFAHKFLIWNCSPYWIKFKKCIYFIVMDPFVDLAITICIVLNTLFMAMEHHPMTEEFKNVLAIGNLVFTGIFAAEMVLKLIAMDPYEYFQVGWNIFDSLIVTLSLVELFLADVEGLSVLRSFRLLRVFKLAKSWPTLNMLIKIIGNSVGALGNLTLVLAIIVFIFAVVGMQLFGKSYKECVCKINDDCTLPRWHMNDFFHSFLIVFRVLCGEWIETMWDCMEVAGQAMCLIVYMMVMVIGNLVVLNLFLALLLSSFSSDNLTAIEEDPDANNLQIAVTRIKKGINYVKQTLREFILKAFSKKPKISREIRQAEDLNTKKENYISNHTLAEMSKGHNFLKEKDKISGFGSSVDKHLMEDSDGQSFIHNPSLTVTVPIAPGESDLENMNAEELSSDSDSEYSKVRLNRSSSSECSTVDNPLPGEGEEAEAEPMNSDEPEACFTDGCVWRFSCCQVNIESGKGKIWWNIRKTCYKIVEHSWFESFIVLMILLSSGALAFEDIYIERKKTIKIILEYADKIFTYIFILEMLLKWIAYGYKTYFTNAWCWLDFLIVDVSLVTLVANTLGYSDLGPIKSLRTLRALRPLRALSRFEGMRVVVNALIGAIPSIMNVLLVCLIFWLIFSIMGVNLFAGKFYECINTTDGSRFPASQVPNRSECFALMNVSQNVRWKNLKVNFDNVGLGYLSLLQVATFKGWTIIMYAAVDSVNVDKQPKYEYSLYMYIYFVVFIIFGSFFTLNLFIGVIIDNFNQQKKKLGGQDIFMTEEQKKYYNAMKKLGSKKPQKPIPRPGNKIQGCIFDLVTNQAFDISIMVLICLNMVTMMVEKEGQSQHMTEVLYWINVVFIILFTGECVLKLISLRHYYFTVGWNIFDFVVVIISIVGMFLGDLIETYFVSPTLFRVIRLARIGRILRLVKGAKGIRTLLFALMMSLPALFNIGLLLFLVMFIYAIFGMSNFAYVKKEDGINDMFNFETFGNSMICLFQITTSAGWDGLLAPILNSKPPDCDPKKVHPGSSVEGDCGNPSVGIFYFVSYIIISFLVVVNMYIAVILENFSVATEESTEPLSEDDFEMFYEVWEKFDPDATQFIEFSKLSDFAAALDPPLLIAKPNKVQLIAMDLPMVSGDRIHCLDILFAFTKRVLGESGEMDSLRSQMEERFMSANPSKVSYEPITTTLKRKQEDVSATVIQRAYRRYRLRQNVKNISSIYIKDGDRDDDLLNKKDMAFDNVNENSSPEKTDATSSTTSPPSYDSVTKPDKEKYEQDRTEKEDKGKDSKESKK
T1 sequence (Q07699 19-218 partner): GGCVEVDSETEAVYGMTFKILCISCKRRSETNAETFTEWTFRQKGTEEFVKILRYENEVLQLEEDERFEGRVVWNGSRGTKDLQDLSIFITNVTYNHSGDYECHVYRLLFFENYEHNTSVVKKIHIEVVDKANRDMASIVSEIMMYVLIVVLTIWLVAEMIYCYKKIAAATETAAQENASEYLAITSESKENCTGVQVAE
T1 sequence (O60939 30-215 partner): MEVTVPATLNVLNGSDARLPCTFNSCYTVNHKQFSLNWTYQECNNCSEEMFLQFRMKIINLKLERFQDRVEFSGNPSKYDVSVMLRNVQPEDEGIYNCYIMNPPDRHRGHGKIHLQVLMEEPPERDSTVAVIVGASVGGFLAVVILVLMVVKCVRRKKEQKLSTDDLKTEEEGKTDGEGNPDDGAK
The assay is described as follows: Single site-directed mutagenesis, inhibition by patch clamp. The format is cell-based. The conditions noted are these: 1 μM. Here is the method: (§1) The amino acids depicted in Fig. 4C were individually mutated to alanine or glycine to perform single site-directed mutagenesis. Subsequently, the inhibition rates of these mutations against WN2-R were measured at a concentration of 1 μM (Fig. 4D). […] While single site-directed mutagenesis did affect the antagonistic activity of WN2-R, it did so to a limited extent, as the presumed induced-fit effect typically arises from the concerted movement of multiple residues.
(§2) Whole-cell patch-clamp recordings were conducted at 25 ± 2 °C, utilizing an EPC 10USB patch-clamp amplifier (HEKA Elektronik, Lambrecht, Germany). Pipettes, with access resistance between 2.0 and 3.0 MΩ, were pulled from borosilicate glass capillary tubes using a 2-step vertical microelectrode puller (PC-10, Narishige Group, Tokyo, Japan). Voltage-clamp recordings were obtained with PatchMaster software v2 × 73 (HEKA Elektronik) 5 min after establishing whole-cell configuration, sampled at 20 kHz, and filtered at 5 kHz. To minimize voltage errors, 80% series resistance compensation was applied. Pipettes were filled with 140 mM CsF, 10 mM NaCl, 1 mM EGTA, and 10 mM HEPES (pH=7.4, adjusted with CsOH). The external solution contained 140 mM NaCl, 2 mM CaCl2, 1 mM MgCl2, 5 mM KCl, 10 mM HEPES, and 10 mM glucose (pH=7.4, adjusted with NaOH). IC50 values were determined in HEK293T or ND7/23 cell lines by voltage clamping at −80 mV, followed by stepping to the V1/2 of inactivation for 8 s to facilitate compound binding.
On the technique in general: In patch-clamp work, channel activity is measured electrically.

Another assay deals with T2, Nav1.7 M1593A (Homo sapiens, UniProt Q15858, M1593A).
T2 construct: expressed in transfected cells; host or cells: HEK293T
T2 sequence (Q15858 whole entry M1593A): as the sequence (Q15858 whole entry A1596G) above, with M1593A, G1596A counted along it
T2 sequence (Q07699 19-218 partner): as the sequence (Q07699 19-218 partner) above
T2 sequence (O60939 30-215 partner): as the sequence (O60939 30-215 partner) above
The description is as above. The conditions noted are these: 1 μM. The format is cell-based. On the procedure: as §1, §2

The next assay addresses T3, Nav1.7 I1612A (Homo sapiens, UniProt Q15858, I1612A).
T3 construct: expressed in transfected cells; host or cells: HEK293T
The assay is described as above. The format is cell-based. The conditions noted are these: 1 μM. On the procedure:
as §1, §2

The next assay has as its target T4, Nav1.7 R1613A (Homo sapiens, UniProt Q15858, R1613A).
T4 construct: expressed in transfected cells; host or cells: HEK293T
Described as above. The class given is cell-based. The following applies: 1 μM. On the procedure: as §1, §2

In a further assay the target is T5, Nav1.7 N1551A (Homo sapiens, UniProt Q15858, N1551A).
T5 construct: expressed in transfected cells; host or cells: HEK293T
T5 sequence (Q15858 whole entry N1551A): as the sequence (Q15858 whole entry A1596G) above, with N1551A, G1596A counted along it
T5 sequence (Q07699 19-218 partner): as the sequence (Q07699 19-218 partner) above
T5 sequence (O60939 30-215 partner): as the sequence (O60939 30-215 partner) above
The assay is described as above. The following applies: 1 μM. The class given is cell-based. Here is the method: as §1, §2

Another assay deals with T6, hNav1.3 (Homo sapiens, UniProt Q9NY46).
T6 construct: expressed in transfected cells; host or cells: HEK293T
The assay is described as follows: Subtype selectivity, patch clamp. The format is cell-based. The following applies: 1 μM. On the procedure: (§3) VGSC inhibitors required credible subtype selectivity to void side effects caused by binding to nontarget subtypes. At a concentration of 1 μM, the inhibitory rates of WN2-R on hNav1.2, hNav1.3, hNav1.4, hNav1.5, mNav1.6, and hNav1.8 were determined (n = 3 to 6, Fig. 7A). […] To further evaluate the drug safety profile, high-dose acute toxicity experiments were conducted. Mice were administered a high dose of 30 mg/kg WN2-R through i.p. administration. The rotarod test, forced-swim test, and open field test were used to explore the effect of high-dose WN2-R on the motor ability of mice (n = 4). The rotarod test evaluated the drug's effect on motor coordination, the forced-swim test examined its impact on the overall motor system, and the open field test assessed the drug's influence on the motor and nervous systems.
(§4) Human embryonic kidney (HEK) 293T (ATCC CRL-3216) and ND7/23 cells (National Collection of Authenticated Cell Cultures SCSP-5026) were cultured under standard conditions (5% CO2, 37 °C) in Dulbecco’s modified Eagle’s medium (DMEM) containing 10% fetal bovine serum and 1% penicillin-streptomycin solution(all from Gibco, Thermo Fisher Scientific, Waltham, MA, USA). When the cells reached 70% to 90% confluence, human Nav1.2 (hNav1.2), human Nav1.3 (hNav1.3), human Nav1.4 (hNav1.4), human Nav1.5 (hNav1.5), and mouse Nav1.6 (mNav1.6) channel plasmids were cotransfected with enhanced green fluorescent protein (eGFP) into HEK293T cells. Additionally, plasmids expressing β1 and β2 subunits tagged with eGFP were cotransfected with the human Nav1.7 (hNav1.7) channel into HEK293T cells. Human Nav1.8 (hNav1.8) was transiently transfected into ND7/23 cells, along with eGFP, using Lipofectamine 2000 (Invitrogen), adhering strictly to the manufacturer’s protocol. For manual patch-clamp experiments, the cells were plated onto glass coverslips and used within 20 to 48 h of transfection.
as §2

In another assay the target is T7, mNav1.6 (Mus musculus, UniProt Q9WTU3).
T7 construct: expressed in transfected cells; host or cells: HEK293T
As to the kind of experiment: Subtype selectivity, patch clamp. The conditions noted are these: 1 μM. The format is cell-based. On the procedure: as §3, §4, §2

A further assay has as its target T8, hNav1.5 (Homo sapiens, UniProt Q14524).
T8 construct: expressed in transfected cells; host or cells: HEK293T
The assay is described as follows: Subtype selectivity, patch clamp. The format is cell-based. The following applies: read-out: Inhibitory rate on Nav1.5. On the procedure: as §3, §4, §2

The target in the next assay is T9, hNav1.4 (Homo sapiens, UniProt P35499).
T9 construct: expressed in transfected cells; host or cells: HEK293T
The assay is described as follows: Subtype selectivity, patch clamp. The class given is cell-based. The conditions noted are these: read-out: Inhibitory rate on Nav1.4. On the procedure: as §3, §4, §2

The target of the next assay is T10, hNav1.2 (Homo sapiens, UniProt Q99250).
T10 construct: expressed in transfected cells; host or cells: HEK293T
T10 sequence (Q99250 whole entry): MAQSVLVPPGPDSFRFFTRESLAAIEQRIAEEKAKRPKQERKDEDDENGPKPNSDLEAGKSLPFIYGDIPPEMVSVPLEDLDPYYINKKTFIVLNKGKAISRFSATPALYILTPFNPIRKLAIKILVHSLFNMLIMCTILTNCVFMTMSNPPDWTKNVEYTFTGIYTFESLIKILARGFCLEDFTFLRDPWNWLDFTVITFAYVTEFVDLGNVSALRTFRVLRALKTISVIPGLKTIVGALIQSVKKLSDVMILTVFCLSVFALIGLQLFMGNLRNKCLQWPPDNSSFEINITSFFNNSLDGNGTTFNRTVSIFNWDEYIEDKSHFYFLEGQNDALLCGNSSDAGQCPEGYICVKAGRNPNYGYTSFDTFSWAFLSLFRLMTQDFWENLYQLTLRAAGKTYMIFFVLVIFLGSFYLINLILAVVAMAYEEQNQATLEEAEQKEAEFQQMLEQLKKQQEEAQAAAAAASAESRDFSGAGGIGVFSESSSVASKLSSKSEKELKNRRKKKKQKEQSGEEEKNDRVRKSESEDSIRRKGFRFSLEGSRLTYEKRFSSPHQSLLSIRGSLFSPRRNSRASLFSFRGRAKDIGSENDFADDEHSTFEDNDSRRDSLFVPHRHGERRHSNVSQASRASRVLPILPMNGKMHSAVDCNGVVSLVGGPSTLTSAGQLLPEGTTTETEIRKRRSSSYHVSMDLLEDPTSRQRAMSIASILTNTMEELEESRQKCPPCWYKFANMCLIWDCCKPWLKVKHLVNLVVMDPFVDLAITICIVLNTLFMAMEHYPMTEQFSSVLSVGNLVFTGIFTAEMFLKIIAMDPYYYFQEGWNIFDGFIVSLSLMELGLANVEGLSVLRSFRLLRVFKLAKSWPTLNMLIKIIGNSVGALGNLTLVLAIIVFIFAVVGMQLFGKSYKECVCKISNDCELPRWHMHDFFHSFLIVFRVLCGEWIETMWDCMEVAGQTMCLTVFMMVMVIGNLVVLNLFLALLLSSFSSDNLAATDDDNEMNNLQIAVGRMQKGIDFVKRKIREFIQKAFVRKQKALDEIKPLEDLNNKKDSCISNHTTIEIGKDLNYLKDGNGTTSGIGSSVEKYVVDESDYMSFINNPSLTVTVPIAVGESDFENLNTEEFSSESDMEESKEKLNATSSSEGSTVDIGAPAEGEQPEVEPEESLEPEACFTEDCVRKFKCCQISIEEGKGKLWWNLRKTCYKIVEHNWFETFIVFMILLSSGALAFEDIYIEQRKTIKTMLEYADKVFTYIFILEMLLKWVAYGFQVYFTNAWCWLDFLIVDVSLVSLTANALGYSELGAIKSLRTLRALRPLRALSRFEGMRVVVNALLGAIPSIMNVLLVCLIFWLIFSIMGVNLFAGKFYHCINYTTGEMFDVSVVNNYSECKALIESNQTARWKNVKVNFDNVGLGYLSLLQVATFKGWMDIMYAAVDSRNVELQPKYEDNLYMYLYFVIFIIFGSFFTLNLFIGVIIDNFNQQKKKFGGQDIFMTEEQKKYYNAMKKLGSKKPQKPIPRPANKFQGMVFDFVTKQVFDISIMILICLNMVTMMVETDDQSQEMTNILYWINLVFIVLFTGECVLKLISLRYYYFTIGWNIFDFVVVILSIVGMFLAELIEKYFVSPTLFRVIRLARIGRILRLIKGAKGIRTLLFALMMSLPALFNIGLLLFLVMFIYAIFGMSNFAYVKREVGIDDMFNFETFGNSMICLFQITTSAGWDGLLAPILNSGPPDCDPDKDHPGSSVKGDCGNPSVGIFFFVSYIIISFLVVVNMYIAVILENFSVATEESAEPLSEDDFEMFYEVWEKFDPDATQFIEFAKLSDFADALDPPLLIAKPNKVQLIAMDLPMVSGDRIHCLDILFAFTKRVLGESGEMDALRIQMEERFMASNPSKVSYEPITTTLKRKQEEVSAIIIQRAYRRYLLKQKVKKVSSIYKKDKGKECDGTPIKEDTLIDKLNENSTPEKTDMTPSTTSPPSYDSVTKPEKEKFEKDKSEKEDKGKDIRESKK
The assay is described as follows: Subtype selectivity, patch clamp. The class given is cell-based. The following applies: 1 μM. On the procedure:
as §3, §4, §2

Structures are written as SMILES.

T3 sequence (Q15858 whole entry I1612A): as the sequence (Q15858 whole entry A1596G) above, with G1596A, I1612A counted along it
T3 sequence (Q07699 19-218 partner): as the sequence (Q07699 19-218 partner) above
T3 sequence (O60939 30-215 partner): as the sequence (O60939 30-215 partner) above
T4 sequence (Q15858 whole entry R1613A): as the sequence (Q15858 whole entry A1596G) above, with G1596A, R1613A counted along it
T4 sequence (Q07699 19-218 partner): as the sequence (Q07699 19-218 partner) above
T4 sequence (O60939 30-215 partner): as the sequence (O60939 30-215 partner) above

For `Cc1ccc(Cn2cc([C@H](CC(=O)NCCN(C)C)c3ccc(F)cc3)c3ccccc32)cc1` [WN2-R], the “Analgesic rate (normalized number of writhing)” value amounted to 30.0% in assay [1] (i.g., 5 mg/kg) and 34.1% in assay [1] (i.p. (method: 1 mg/kg i.m.)). At Nav1.7 A1596G, the “Effect of the mutation on antagonistic activity” value is listed as “exerted an influence”. Further, the “Inhibition rate on the mutant relative to wild type” value is on record as 57.1 % of WT at Nav1.7 M1593A, 30.6 % of WT on Nav1.7 I1612A, 57.4 % of WT at Nav1.7 R1613A and 58.9 % of WT at Nav1.7 N1551A. Also, the “Inhibitory rate on hNav1.3” value at hNav1.3 was “much lower than that on Nav1.7”. Besides, the “Inhibitory rate on mNav1.6” value at mNav1.6 is reported as “much lower than that on Nav1.7”. Also, the inhibition at 1 µM amounted to 19.1% at hNav1.5 and 16.3% at hNav1.4. The “Inhibitory rate on hNav1.2” value on hNav1.2 is given as “much lower than that on Nav1.7”.

The record behind these values is article PMC11775380, “Discovery of Novel Nav1.7-Selective Inhibitors with the 1H-Indole-3-Propionamide Scaffold for Effective Pain Relief” (Research, 2025).
